According to patent US12521353B1, “Encapsulated resveratrol (RSV) nanoparticles” (priority 2024, dated 2026):
“Also recorded” adds a separate entry of the source.

How the values were obtained:
Type in all cases: in vivo
Bax = experiment: IHC assay of apoptosis-related factor Bax in testis of rats exposed to ZEA; settings: rat testis
From the text: (§1) As described herein, the therapeutic efficacy of the encapsulated RSV nanoparticles can be evaluated based on immunohistochemical assessment of apoptosis-related factors (Bax and Bcl-2) in the testis and the gene expression of constitutive androstane receptor (CAR), a well-known xenobiotic-sensing nuclear receptor in the liver, of rats exposed to a fungal mycotoxin, zearalenone (ZEA). The encapsulated RSV nanoparticles reversed the toxic effects of the mycotoxin, as reflected by intense Bcl-2 immunoreactivity and negligible Bax immunoreactivity. Further, the expression of the CAR gene was enhanced by treatment with the present RSV nanoparticles.
(§2) IHC assay was conducted to estimate the toxic impact of ZEA and the ameliorative effect of RSV and its nano-formulation on the expression of apoptosis-related factors (Bax and Bcl-2).

[1] = test system: apoptosis-related factors (Bax and Bcl-2); experiment: Overall immunohistochemical assessment of apoptosis-related factors (Bax and Bcl-2), mycotoxin-induced apoptosis in rat testis; settings: testis of rats exposed to ZEA and treated
From the text: as §1, §2
Testes sections stained immunohistochemically against Bcl-2 was noticeably higher (brown color) in control group that received distilled water (FIG. 5A), compared with the group that received 0.1 mg/kg of ZEA that have almost no Bcl-2 immunoreactivity (FIG. 5B). […] High Bcl-2 immunoreactivity was detected in the groups that received 10 mg/kg RSV or 10 mg/kg RSV NPs (FIGS. 5E and 5F). […]

Bcl-2 = experiment: IHC assay of apoptosis-related factor Bcl-2 in testis of rats exposed to ZEA; settings: rat testis
From the text: as §1
Testes sections stained immunohistochemically against Bcl-2 was noticeably higher (brown color) in control group that received distilled water (FIG. 5A), compared with the group that received 0.1 mg/kg of ZEA that have almost no Bcl-2 immunoreactivity (FIG. 5B). […] High Bcl-2 immunoreactivity was detected in the groups that received 10 mg/kg RSV or 10 mg/kg RSV NPs (FIGS. 5E and 5F).

[2] = 0.1 mg/kg ZEA + 10 mg/kg treatment
[3] = 10 mg/kg alone, no ZEA, 10 mg/kg

Structure (SMILES): Oc1ccc(C=Cc2cc(O)cc(O)c2)cc1 [RSV, Resveratrol]
- Bax immunoreactivity (Bax; [2]): moderate to low
- Bax immunoreactivity (Bax; [3]): negative; also recorded: Almost no
- effect on apoptosis induced by the mycotoxin (expression of Bax and Bcl-2 factors) [1]: effectively reduced
- Bcl-2 immunoreactivity (Bcl-2; [2]): moderate
- Bcl-2 immunoreactivity (Bcl-2; [3]): intense and High

Structure (SMILES): C[C@H]1CCCC(=O)CCC/C=C/c2cc(O)cc(O)c2C(=O)O1 [ZEA, zearalenone]
- Bax immunoreactivity (Bax; 0.1 mg/kg ZEA alone): intense
- Bcl-2 immunoreactivity (Bcl-2; 0.1 mg/kg ZEA alone, 0.1 mg/kg): weak and almost no
